Structures are written as SMILES. Counter-ions that a name gives are not always drawn.

These results are taken from patent US12409167B2, “Pharmaceutical combination comprising a selective S1P1 receptor agonist” (Vanda Pharmaceuticals Inc., priority 2014, dated 2025).

The subject of assay [1] is lymphocyte count in peripheral blood. The assay is described as follows: ponesimod pilot experiment, lymphocyte count in peripheral blood. It is filed as in vivo. As to conditions: second pilot experiment, healthy female Lewis rats, dose 100 mg/kg. As for the experimental part: In parallel to the measurement of efficacy of DMF in the EAE model, a second pilot experiment is required. Healthy female Lewis rats will receive ponesimod at different doses in the range from 0.3 to 100 mg/kg. The goal is to assess the dose-effect relationship of ponesimod on lymphocyte count in peripheral blood in this strain of rat.

For assay [2], the system named is experimental autoimmune encephalomyelitis (EAE). The assay is described as follows: combination efficacy experiment in rat EAE model. Type of assay: in vivo, Female Lewis rats. Particulars: FIG. 1, DMF 120 mg/kg q.d., ponesimod 100 mg/kg q.d., from day 0; for effect on clinical course of EAE (clinical score): n=11/group. The procedure: FIG. 1: Efficacy of ponesimod, DMF or its combination in rat EAE (n=11/group). Clinical scoring was performed daily by an independent examiner in a blinded manner. SEM=standard error of the mean. Female Lewis rats are immunized with an emulsion of myelin basic protein (MBP) from Guinea pig in complete Freund's adjuvant. A total of 200 micrograms of MBP is injected per rat at two sites subcutaneously (right paw and base of tail). Within 10 days the rats develop signs of paralysis which will be graded on a scale from 0 to 15 assessing the tail and each limb individually according to the method originally described by Weaver A. et al., FASEB J., 2005, 19(12): 1668-1670. The disease takes an acute monophasic course and is self-remitting. Usually by day 21 clinical scores reach values below 3.0. Groups of 10 to 14 rats are dosed starting at the day of disease induction (day 0) with different doses of DMF in the range between 40 and 160 mg/kg once daily (q.d.). Clinical scores are assessed on a daily basis and disease development is compared between vehicle-treated rats and rats receiving DMF (vehicle: 0.5% Methylcellulose/0.5% Tween® 80). In parallel, body weights of the rats are monitored on a daily basis to follow general health. The experiment is terminated at day 21 whereupon hematology can be measured. The combination efficacy experiment is performed in the same rat EAE model as described for the first pilot experiment. It consists of four treatment groups: • 1. Vehicle (0.5% Methylcellulose/0.5% Tween® 80) q.d., from day 0 • 2. DMF (120 mg/kg) q.d., from day 0 • 3. Ponesimod (100 mg/kg) q.d., from day 0 • 4. DMF (120 mg/kg) q.d., from day 0+ponesimod (100 mg/kg) q.d., from day 0 In life and termination endpoints are the same as described for the first pilot experiment.

Assay [3] deals with peripheral blood lymphocytes. Particulars: oral administration; cited from earlier work.
For assay [4], the system named is moderate to severe chronic plaque psoriasis; relapsing-remitting multiple sclerosis. Particulars: patients with moderate to severe chronic plaque psoriasis and with relapsing-remitting multiple sclerosis; cited from earlier work.
The test system of assay [5] is experimental autoimmune encephalomyelitis (EAE). Briefly: rat monophasic EAE model, DMF pilot experiment. It is filed as in vivo, Female Lewis rats. As to conditions: first pilot experiment, dose 120 mg/kg q.d. from day 0. The procedure: The efficacy of dimethyl fumarate (DMF) in acute monophasic models of experimental autoimmune encephalomyelitis (EAE) can be determined in a pilot experiment.
Female Lewis rats are immunized with an emulsion of myelin basic protein (MBP) from Guinea pig in complete Freund's adjuvant. A total of 200 micrograms of MBP is injected per rat at two sites subcutaneously (right paw and base of tail). Within 10 days the rats develop signs of paralysis which will be graded on a scale from 0 to 15 assessing the tail and each limb individually according to the method originally described by Weaver A. et al., FASEB J., 2005, 19(12): 1668-1670. The disease takes an acute monophasic course and is self-remitting. Usually by day 21 clinical scores reach values below 3.0.
Groups of 10 to 14 rats are dosed starting at the day of disease induction (day 0) with different doses of DMF in the range between 40 and 160 mg/kg once daily (q.d.). Clinical scores are assessed on a daily basis and disease development is compared between vehicle-treated rats and rats receiving DMF (vehicle: 0.5% Methylcellulose/0.5% Tween® 80). In parallel, body weights of the rats are monitored on a daily basis to follow general health. The experiment is terminated at day 21 whereupon hematology can be measured.
Plasma samples can be taken for compound concentration determination and for the measurement of protein markers. […]

As to `CCC/N=C1\S/C(=C\c2ccc(OC[C@H](O)CO)c(Cl)c2)C(=O)N1c1ccccc1C` [ponesimod, (R)-5-[3-chloro-4-(2,3-dihydroxy-propoxy)-benz[Z]ylidene]-2-([Z]-propylimino)-3-o-tolyl-thiazolidin-4-one], the “efficacy on lymphocyte count reduction” value in assay [1] is reported as “full efficacy on lymphocyte count reduction”. In addition, the “effect on clinical course of EAE (clinical score)” value in assay [2] is “marked and statistically significant effect”. For the same molecule, the “number of peripheral blood lymphocytes” value in assay [3] is “consistent, sustained, and dose-dependent reduction”. The “clinical benefit in phase II trials” value in assay [4] is “has shown clinical benefit”.
As for `COC(=O)/C=C/C(=O)OC` [DMF, dimethyl fumarate], in assay [5], the “efficacy on EAE scores” value is “partial efficacy between none and strongest efficacy”. Moreover, the “effect on clinical score from day 16 onwards” value in assay [2] (from day 16 onwards) is “no effect on clinical score anymore”. Besides, the “effect on clinical course of EAE (clinical score)” value in assay [2] is reported as “moderate effect during the ascending phase of the disease”.
